Columns and labels:
[1] = Self-diffusion NMR (SD-NMR); type: physicochemical
Procedure: In order to characterize the structure of the oily domains, self-diffusion NMR (SD-NMR) analysis was carried out. SD-NMR analysis provides an indication on the location of each component within the structure, by calculating the diffusion coefficient of each component in the system.
SD-NMR measurements were performed with a Bruker AVII 500 spectrometer equipped with GREAT 1/10 gradients, a 5 mm BBO and a 5 mm BBI probe, both with a z-gradient coil and with a maximum gradient strength of 0.509 and 0.544 T m^−1, respectively. Diffusion was measured using an asymmetric bipolar longitudinal eddy-current delay (bpLED) experiment, or and asymmetric bipolar stimulated echo (known as one-shot) experiment with convection compensation and an asymmetry factor of 20%, ramping the strongest gradient from 2% to 95% of maximum strength in 32 steps. The spectrum was processed with the Bruker TOPSPIN software. NMR spectra were recorded at 25±0.2° C. The components were identified by their chemical shift in 1H NMR.

[2] = Water dilution of the oily phase; type: physicochemical; conditions: oily phase loaded with active; un-loaded phase separates above 50 wt % water
Procedure: 2 wt % DCF-Na loaded oily composition which is substantially devoid of water (i.e. a concentrate) was prepared according to the process described above. The un-diluted oily composition was constituted by self-assembled oil-solvated clusters or short domains of surfactants, which differ from the classical reverse micelles. These concentrates are dilutable by any suitable diluent, for example by purified water, to form a diluted delivery system.
It was noted that the oily carrier, i.e. the oily composition without DCF-Na, could not be fully diluted.

## O=C([O-])Cc1ccccc1Nc1c(Cl)cccc1Cl.[Na+] [DCF-Na, diclofenac sodium]
[1]; 2 wt % DCF-Na formulation, FIGS. 11A-11B
  Diffusion coefficient Dx of DCF-Na: 0.1×10^−11 m^2/sec
[1]; 80 wt % water, 0.75 wt % gellant
  Diffusion coefficient of DCF-Na, gelled vs non-viscosified: lower in the gelled formulation than in the non-viscosified system
[2]
  Dilutability of the oily phase with water: fully dilutable up to 90 wt %
